Where no end group is shown, it is not given here. The star is where a group is joined. Biotin = O=C1N[C@H]2[C@H](CS[C@H]2CCCCC(=O)*)N1
Experiments:
[1] = test system: pellicle coated enamel substrates; details: 20 μM biotinylated peptide, streptavidin-HRP, normalized to DenP03, three replicates
Description: A total of 20 synthetic peptides were manufactured using sequences obtained from Table 6. Peptides were obtained from SynBioSci Corp. (Livermore, Calif.) and included an additional sequence (SSRP; SEQ ID NO: 118) at the N-terminus and biotin labeled lysine at the C-terminus.
Enamel substrates were cut into approximately 7 mm squares and mounted on wax mounting for incubation in the mouth for 30 min to form a pellicle coated surface. The pellicle coated enamel substrates were removed from the wax backing and placed in well plates with the pellicle surface exposed as in Example 5. Each pellicle coated substrate was incubated for 1 h at room temperature (˜22° C.) with 1 mL of blocking buffer, consisting of 1 mg/mL BSA in PBST (Pierce BUPH™ #28372 with 0.1% TWEEN® 20). The blocking buffer was removed by aspirating the liquid out of each well. The tube was rinsed 2 times with wash buffer consisting of PBST. The wells were filled with 500 μL of 20 μM peptide solution which was prepared by diluting in blocking buffer. The samples were incubated for 30 min with slow shaking at 37° C. The non-binding peptide was removed by washing 6 times with PBST. Then, 500 μL of horseradish peroxidase/streptavidin conjugate (Pierce #22127), diluted 1:2000 in PBST, was added and incubated for 1 h at room temperature (˜22° C.). The conjugate solution was removed and was washed 4 times with PBST.
Each enamel substrate was removed from the well and washed again in a 15-mL test tube with 10 mL of PBST. Each enamel substrate was then mounted in a clean well plate with only the enamel surface exposed. A 1:1 solution of TMB substrate and H2O2 (200 μL) was added to each well and the color was allowed to develop for between 10 to 20 min, typically for 15 min, at room temperature (˜22° C.). Then, 100 μL of solution from each well was transferred to a 96 well reading plate containing stop solution (100 μL of 2 M H2SO4) in each well. The A450 was measured using a microplate spectrophotometer (Molecular Devices, Sunnyvale, Calif.). […] Each sequence was tested with three replicate enamel coated pellicle substrates.

[2] = test system: pellicle-coated HAP disks; experiment: Phage ELISA on pellicle-coated HAP disks; type: binding, human; details: over 10^10 pfu phage, A450
Source text: A total of 20 selected phage candidates (Example 1) were used in a phage ELISA experiment. Purified phage lysates were used for binding to pellicle-coated HAP disks using an anti-M13 phage antibody conjugated to horseradish-peroxidase, followed by the addition of chromogenic agent TMB (3,3′,5,5′-tetramethylbenzidine), obtained from Pierce Biotechnology (Item #34021; Rockford, Ill.). The plates were read at A450 nm.
For each phage candidate to be tested, the pellicle-coated HAP disks (3 mm diameter) was incubated for 1 h at room temperature with 200 μL of blocking buffer, consisting of 2% non-fat dry milk (Schleicher & Schuell, Inc.) in TBS. […] The tube was rinsed 6 times with wash buffer consisting of TBST-0.05%. The wells were filled with 200 μL of TBST-0.5% containing 1 mg/mL BSA (bovine serum albumin) and then 10 μL (over 10^10 pfu) of purified phage stock was added. The samples were incubated at room temperature for 60 min with slow shaking. The non-binding phage were removed by washing 6 times with TBST-0.5%. […] The conjugate solution was removed and was washed 6 times with TBST-0.5%.

[3] = test system: pellicle coated bovine enamel; experiment: Phage ELISA on pellicle coated bovine enamel (Example 6); type: binding, human; details: 10^11 pfu phage, 30 min in vivo pellicle on bovine enamel, normalized to an internal control
Description: A total of 29 selected phage candidates from Table 5 were used in phage ELISA Experiment to determine binding affinity and coverage of each phage on pellicle substrates. Purified phage lysates were used for binding to pellicle coated bovine enamel using an anti-M13 phage antibody conjugated to horseradish-peroxidase, followed by the addition of chromogenic agent TMB. The plates were read at A450 nm.
The wells were filled with 1 mL of 10^11 pfu purified phage stock which was prepared by diluting in blocking buffer. […] The non-binding phage was removed by washing 5 times with PBST. […] The conjugate solution was removed and was washed 3 times with PBST.

| Substance | O.D.450 [2] | O.D.450 (normalized) [3] | also measured |
| --- | --- | --- | --- |
| SSRPDLGTFPNRTLKMAAHK(Biotin) [DenP11-A] | – | – | O.D.450 (normalized) [1]: 0.454 |
| DECMEPLNAAHCWR (Synthetic oral-surface binding peptide) [Pell 3] | 0.49 | – | – |
| SNATMYNIQSHSHHQ (Synthetic oral-surface binding peptide) [DenP24] | – | 0.979 | – |
| WCTDFCTRSTPTSTSRSTTS (Synthetic oral-surface binding peptide) [Pell 20] | 0.715 | – | – |
| SSRPTYQGVPSWPAVIDDAIRRK(Biotin) [DenP19-A] | – | – | O.D.450 (normalized) [1]: 0.712 |
| ASVSNYPPIHHLATSNTTVN (Synthetic oral-surface binding peptide) [Pell 2] | 0.75 | – | – |
| QHCITERLHPPCTK (Synthetic oral-surface binding peptide) [Pell 17] | 0.614 | – | – |
| SSRPTMTNHVYNSYTEKHSSTHRSK(Biotin) [DenP2-A] | – | – | O.D.450 (normalized) [1]: 0.273 |
| DLGTFPNRTLKMAAH (Synthetic oral-surface binding peptide) [DenP11] | – | 1.663 | – |
| DECMHGSDVEFCTS (Synthetic oral-surface binding peptide) [Pell 4] | 0.664 | – | – |
| ANELSTYAQTNPGSG (Synthetic oral-surface binding peptide) [DenP25] | – | 0.909 | – |
| SSRPQAAQVHMMQHSRPTTK(Biotin) [DenP13-A] | – | – | O.D.450 (normalized) [1]: 0.699 |
| SSRPTTGSSSQADTSASMSIVPAHK(Biotin) [DenP17-A] | – | – | O.D.450 (normalized) [1]: 0.143 |
| SSRPNGNNHTDIPNRSSYTGGSFAK(Biotin) [DenP1-A] | – | – | O.D.450 (normalized) [1]: 0.154 |
| EPTHPTMRAQMHQSLRSSSP (Synthetic oral-surface binding peptide) [Pell 8] | 0.712 | – | – |
| KAPIANMLQPHSYQYSVA (Synthetic oral-surface binding peptide) [DenP18] | – | 1.143 | – |
| VNPNWVETQALHQPPGNT (Synthetic oral-surface binding peptide) [DenP20] | – | 1.298 | – |
| SSRPHDPNHLTHQARTIYRNANHTK(Biotin) [DenP23-A] | – | – | O.D.450 (normalized) [1]: 0.850 |
| NPTATPHMKDPMHSNAHSSA (Synthetic oral-surface binding peptide) [Pell 14] | 0.7 | – | – |
| IYPNESMSTSNVRGPYHP (Synthetic oral-surface binding peptide) [DenP22] | – | 1.420 | – |

| Substance | O.D.450 [2] | O.D.450 (normalized) [3] | also measured |
| --- | --- | --- | --- |
| IPWWNIRAPLNAGGG [Control, reference compound] | – | 1.000 | – |
| SSRPEFPYYNDNPPNPERHTLRK(Biotin) [DenP7-A] | – | – | O.D.450 (normalized) [1]: 0.356 |
| VEPATKNMREARSSTQMRRI (Synthetic oral-surface binding peptide) [DenP4] | – | 1.421 | – |
| EFPYYNDNPPNPERHTLR (Synthetic oral-surface binding peptide) [DenP7] | – | 1.500 | – |
| SSRPGPQHVLMQDTHQGYAFDNK(Biotin) [DenP16-A] | – | – | O.D.450 (normalized) [1]: 0.309 |
| TMTNHVYNSYTEKHSSTHRS (Synthetic oral-surface binding peptide) [DenP2] | – | 1.951 | – |
| NGNNHTDIPNRSSYTGGSFA (Synthetic oral-surface binding peptide) [DenP1] | – | 1.002 | – |
| NGPDMVQSVGKHKNS (Synthetic oral-surface binding peptide) [Pell 10] | 0.729 | – | – |
| QAAQVHMMQHSRPTT (Synthetic oral-surface binding peptide) [DenP13] | – | 0.845 | – |
| AVVPADLNDHANHLS (Synthetic oral-surface binding peptide) [DenP10] | – | 1.619 | – |
| TPCAPASFNPHCSR (Synthetic oral-surface binding peptide) [Pell 18] | 0.416 | – | – |
| DPNESNYENATTVSQPTRHL (Synthetic oral-surface binding peptide) [Pell 7] | 0.831 | – | – |
| HKNAIQPVNDATTLDTTM (Synthetic oral-surface binding peptide) [DenP9] | – | 1.364 | – |
| HKNENIMQYNVNDRWHITPA (Synthetic oral-surface binding peptide) [DenP32] | – | 1.441 | – |
| NNTWPEGAGHTMPSTNIRQA (Synthetic oral-surface binding peptide) [Pell 13] | 0.598 | – | – |
| NPTDHIPANSTNSRVSKGNT (Synthetic oral-surface binding peptide) [Pell 15] | 0.567 | – | – |
| DTIHPNKMKSPSSPL (Synthetic oral-surface binding peptide) [DenP26] | – | 1.039 | – |
| GNTDTTPPNAVMEPTVQHKW (Synthetic oral-surface binding peptide) [Pell 9] | 0.755 | – | – |
| ELDHDSRHYMNGLQRKVT (Synthetic oral-surface binding peptide) [DenP15] | – | 1.112 | – |
| FDGIGLGTATRHQNR (Synthetic oral-surface binding peptide) [DenP12] | – | 2.079 | – |

| Substance | O.D.450 [2] | O.D.450 (normalized) [3] | also measured |
| --- | --- | --- | --- |
| NPTDSTHMMHARNHE (Synthetic oral-surface binding peptide) [Pell 16] | 0.578 | – | – |
| TPCATYPHFSGCRA (Synthetic oral-surface binding peptide) [Pell 19] | 0.731 | – | – |
| APPTYQTASYPHNLPSKRKM (Synthetic oral-surface binding peptide) [DenP28] | – | 1.203 | – |
| TTGSSSQADTSASMSIVPAH (Synthetic oral-surface binding peptide) [DenP17] | – | 0.971 | – |
| HDPNHLTHQARTIYRNANHT (Synthetic oral-surface binding peptide) [DenP23] | – | 1.236 | – |
| TYQGVPSWPAVIDDAIRR (Synthetic oral-surface binding peptide) [DenP19] | – | 1.052 | – |
| NGPEVRQIPANFEKL (Synthetic oral-surface binding peptide) [Pell 11] | 0.607 | – | – |
| AHPESLGIKYALDGNSDPHA (Synthetic oral-surface binding peptide) [Pell 1] | 0.739 | – | – |
| DLCSSPSTWGSCIR (Synthetic oral-surface binding peptide) [Pell 6] | 0.735 | – | – |
| DLCSMQMMNTGCHY (Synthetic oral-surface binding peptide) [Pell 5] | 0.83 | – | – |
| TNDLHANPFTGTYIAPDPTS (Synthetic oral-surface binding peptide) [DenP30] | – | 1.082 | – |
| DHNNRQHAVEVRENKTHTAR (Synthetic oral-surface binding peptide) [DenP21] | – | 0.728 | – |
| GMPTRYYHNTPPHLTPKF (Synthetic oral-surface binding peptide) [DenP8] | – | 1.182 | – |
| YLLPKDQTTAPQVTPIVQHK (Synthetic oral-surface binding peptide) [DenP5] | – | 1.087 | – |
| QVPDYLSPTHQKKAFLEIPT (Synthetic oral-surface binding peptide) [DenP29] | – | 0.976 | – |
| SEARARTFNDHTTPMPII (Synthetic oral-surface binding peptide) [DenP14] | – | 2.498 | – |
| GPQHVLMQDTHQGYAFDN (Synthetic oral-surface binding peptide) [DenP16] | – | 2.190 | – |
| NNTSADNPPETDSKHHLSMS (Synthetic oral-surface binding peptide) [Pell 12] | 0.521 | – | – |

Source: US8354381B2, “Peptide compositions for oral care systems” (E I du Pont de Nemours and Company, priority 2009, dated 2013)
